Positions count from the first letter of the chain named.
Experiments:
[1] = biological target: T1, Lys^65Arg hFFA2 (Homo sapiens, UniProt O15552, K65R); test: inositol monophosphate accumulation assay, Lys65Arg hFFA2; assay type: cell-based
T1 construct: NanoLuc Luciferase (N); eYFP; expressed in transfected cells; host or cells: Flp-In T-REx HEK293, doxycycline-induced
T1 sequence (O15552 1-330 K65R): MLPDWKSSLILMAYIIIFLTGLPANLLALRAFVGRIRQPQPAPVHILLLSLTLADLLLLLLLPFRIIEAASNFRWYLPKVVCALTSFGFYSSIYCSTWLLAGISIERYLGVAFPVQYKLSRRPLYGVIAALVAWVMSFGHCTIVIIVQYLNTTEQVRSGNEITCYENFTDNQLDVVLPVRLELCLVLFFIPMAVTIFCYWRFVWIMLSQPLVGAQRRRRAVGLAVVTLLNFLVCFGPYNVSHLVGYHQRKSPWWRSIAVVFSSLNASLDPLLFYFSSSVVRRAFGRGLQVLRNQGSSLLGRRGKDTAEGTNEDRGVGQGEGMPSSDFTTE
Protocol: (§1) All cAMP and inositol monophosphate experiments were performed using Flp-In T-REx HEK293 cells induced to express the receptor of interest. Experiments were carried out using respective homogenous time-resolved FRET-based detection kits (CisBio Bioassays; CisBio, Codolet, France) according to the manufacturer’s protocol. For the cAMP inhibition assay cells were plated at 2000 cells/well in low-volume 384-well plates. The ability of agonists to inhibit 1 μM forskolin-induced cAMP production was assessed following a co-incubation for 30 min with agonist compounds. For the inositol monophosphate accumulation assay cells were plated at 7500 cells/well in low-volume 384-well plates and incubated for 2 h at 37 °C with test compounds. To assess ability of antagonists to inhibit agonist responses, cells were pre-incubated with antagonist compounds for 30 min at 37 °C prior to addition of an EC80 concentration of agonist. Respective reactions were stopped according to the manufacturer’s instructions and the output was measured by with a PHERAstar FS plate reader (BMGLabtech, Aylesbury, UK).

[2] = biological target: T2, Lys^65Glu hFFA2 (Homo sapiens, UniProt O15552, K65E); test: inositol monophosphate accumulation assay, Lys65Glu hFFA2; assay type: cell-based
T2 construct: NanoLuc Luciferase (N); eYFP; expressed in transfected cells; host or cells: Flp-In T-REx HEK293, doxycycline-induced
T2 sequence (O15552 1-330 K65E): T1 sequence (O15552 1-330 K65R) with R65E
Protocol: as §1

[3] = biological target: T1, Lys^65Arg hFFA2; test: HTRF cAMP inhibition assay, Lys65Arg hFFA2; assay type: cell-based; details: inhibition of 1 μM forskolin-induced cAMP
Protocol: as §1

[4] = biological target: T2, Lys^65Glu hFFA2; test: HTRF cAMP inhibition assay, Lys65Glu hFFA2; assay type: cell-based; details: inhibition of 1 μM forskolin-induced cAMP, K65E hFFA2
Protocol: as §1

[5] = biological target: T1, Lys^65Arg hFFA2; test: [35S]GTPγS incorporation assay, Lys65Arg hFFA2; assay type: biochemical; details: membranes
Protocol: (§2) Initially, 5 μg of generated membrane protein was pre-incubated for 15 min at 25 °C in assay buffer (50 mM Tris-HCl, 10 mM MgCl2; 100 mM NaCl; 1 mM EDTA; 1 μM GDP; 0.1% fatty acid-free bovine serum albumin; pH 7.4) containing the indicated ligand concentrations. […] Unbound radioligand was removed from filters by three washes with ice-cold wash buffer (50 mM Tris-HCl, 10 mM MgCl2; pH 7.4) and filters were dried for 2–3 h at room temperature. Dried filters were added to 3 mL of Ultima Gold^TM XR (PerkinElmer Life Sciences, Beaconsfield, UK) and [^35S]GTPγS binding was determined by liquid scintillation spectrometry.

[6] = biological target: T2, Lys^65Glu hFFA2; test: [35S]GTPγS incorporation assay, Lys65Glu hFFA2; assay type: biochemical; details: membranes
Protocol: as §2

[7] = biological target: T3, hFFA2 (Homo sapiens, UniProt O15552); test: inositol monophosphate accumulation assay, wild type hFFA2; assay type: cell-based; design: expressed in transfected cells; details: wild type hFFA2
T3 sequence (O15552 1-330): T1 sequence (O15552 1-330 K65R) with R65K
Protocol: as §1

[8] = biological target: T3, hFFA2; test: HTRF cAMP inhibition assay, wild type hFFA2; assay type: cell-based; design: expressed in transfected cells; details: inhibition of 1 μM forskolin-induced cAMP
Protocol: as §1

[9] = biological target: T4, Lys^65Ala hFFA2 (Homo sapiens, UniProt O15552, K65A); test: inositol monophosphate accumulation assay, Lys65Ala hFFA2; assay type: cell-based; design: NanoLuc Luciferase (N); eYFP; expressed in transfected cells; host or cells: Flp-In T-REx HEK293, doxycycline-induced
T4 sequence (O15552 1-330 K65A): T1 sequence (O15552 1-330 K65R) with R65A
Protocol: as §1

[10] = biological target: T4, Lys^65Ala hFFA2; test: HTRF cAMP inhibition assay, Lys65Ala hFFA2; assay type: cell-based; design: NanoLuc Luciferase (N); eYFP; expressed in transfected cells; host or cells: Flp-In T-REx HEK293, doxycycline-induced; details: inhibition of 1 μM forskolin-induced cAMP, K65A hFFA2
Protocol: as §1

[11] = biological target: T4, Lys^65Ala hFFA2; test: [35S]GTPγS incorporation assay, Lys65Ala hFFA2; assay type: biochemical; design: NanoLuc Luciferase (N); eYFP; expressed in transfected cells; host or cells: Flp-In T-REx HEK293, doxycycline-induced; details: membranes
Protocol: as §2

[12] = biological target: T3, hFFA2; test: [35S]GTPγS incorporation assay, wild type hFFA2; assay type: biochemical; design: HA-tag (C); expressed in transfected cells; host or cells: HEK293, parental and CRISPR/Cas9 G protein-deleted lines, transient transfection; details: membranes
Protocol: as §2

Cc1nc(NC(=N)N)sc1-c1cccc(NC(=O)c2ccc(F)cc2)c1 [AZ1729, N-[3-(2-carbamimidamido-4-methyl-1,3-thiazol-5-yl)phenyl]-4-fluoro benzamide]
inositol monophosphate production via Lys65Arg hFFA2 [1]: unable to promote inositol monophosphate production
inositol monophosphate production via Lys65Glu hFFA2 [2]: unable to promote inositol monophosphate production
pEC50 cAMP, K65R [3]: 6.47 ± 0.15
pEC50 cAMP, K65E [4]: 6.45 ± 0.15
pEC50 GTPγS, K65R [5]: 6.79 ± 0.07
pEC50 GTPγS, K65E [6]: 6.79 ± 0.12
accumulation of inositol monophosphates via hFFA2 [7]: unable to promote accumulation of inositol monophosphates
pEC50 cAMP, WT [8]: 6.35 ± 0.13
inositol monophosphate production via Lys65Ala hFFA2 [9]: unable to promote inositol monophosphate production
pEC50 cAMP, K65A [10]: 6.42 ± 0.03
pEC50 GTPγS, K65A [11]: 6.94 ± 0.14
pEC50 GTPγS, WT [12]: 6.97 ± 0.02

From publication PMC5653858, “A single extracellular amino acid in Free Fatty Acid Receptor 2 defines antagonist species selectivity and G protein selection bias” (Scientific Reports, 2017)
